# Test results published in paper PMC2868945 (Bioorganic & medicinal chemistry, 2010).
# “And” between values parts separate entries of the source, which are not always exact repeats. Equal entries are not always repeated. “Also recorded” adds a separate entry of the source.
# Legend:
# [1] = target: recombinant lumazine synthase of M. tuberculosis (Mycobacterium tuberculosis, UniProt P9WHE9); assay: Kinetic assay of lumazine synthase inhibitors; format: biochemical; details: for inhibitory activity against lumazine synthase (in words): M. tuberculosis LS; for Kcat (rate constant for ES ⇌ E + P) / Mechanism / Kis (inhibitor dissociation constant for ES + I ⇌ ESI): LS; for Kcat (rate constant for ES ⇌ E + P): fit parameter of the inhibitor's data set; for Mechanism: most likely inhibition model (DynaFit); for Kis (inhibitor dissociation constant for ES + I ⇌ ESI): pH 7.0, 27 °C, pyrimidinedione substrate varied
# [2] = target: recombinant riboflavin synthase of M. tuberculosis (Mycobacterium tuberculosis, UniProt P9WK35); assay: Kinetic assay of riboflavin synthase inhibitors; format: biochemical; details: for inhibitory activity against riboflavin synthase (in words): M. tuberculosis RS; for Mechanism: most likely inhibition model (DynaFit); for Kis (inhibitor dissociation constant for ES + I ⇌ ESI): pH 7.0, 27 °C
# [3] = target: T1, M. tuberculosis lumazine synthase (Mycobacterium tuberculosis, UniProt P9WHE9); assay: biochemical; format: binding; details: for binding enthalpy ΔH: 100 mM potassium phosphate buffer, pH 7.0, 30 °C, apparent; for entropy ΔS of binding: calculated from ΔG = ΔH − TΔS
# [4] = target: icosahedral lumazine synthase from Bacillus anthracis (Bacillus anthracis, UniProt Q81MB5); format: binding
# [5] = target: pentameric lumazine synthase from Schizosaccharomyces pombe (Schizosaccharomyces pombe, UniProt Q9UUB1); format: binding; details: same experimental limits as for the M. tuberculosis enzyme
# [6] = target: T1, M. tuberculosis lumazine synthase; details: cited from earlier work
# [7] = RS, fit parameter of the inhibitor's data set
# T1 sequence (P9WHE9 whole entry): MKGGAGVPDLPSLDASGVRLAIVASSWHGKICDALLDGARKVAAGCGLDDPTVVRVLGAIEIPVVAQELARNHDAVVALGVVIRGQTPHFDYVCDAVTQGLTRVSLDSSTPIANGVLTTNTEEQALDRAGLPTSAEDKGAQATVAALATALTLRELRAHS
# Sequence of recombinant lumazine synthase of M. tuberculosis (P9WHE9 whole entry): as above
# Sequence of recombinant riboflavin synthase of M. tuberculosis (P9WK35 whole entry): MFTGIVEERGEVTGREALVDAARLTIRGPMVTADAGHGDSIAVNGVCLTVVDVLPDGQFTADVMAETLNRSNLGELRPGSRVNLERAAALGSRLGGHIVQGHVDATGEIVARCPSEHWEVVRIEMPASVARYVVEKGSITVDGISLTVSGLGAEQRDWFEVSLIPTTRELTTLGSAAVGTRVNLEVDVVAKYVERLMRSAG
# Sequence of icosahedral lumazine synthase from Bacillus anthracis (Q81MB5 whole entry, looked up): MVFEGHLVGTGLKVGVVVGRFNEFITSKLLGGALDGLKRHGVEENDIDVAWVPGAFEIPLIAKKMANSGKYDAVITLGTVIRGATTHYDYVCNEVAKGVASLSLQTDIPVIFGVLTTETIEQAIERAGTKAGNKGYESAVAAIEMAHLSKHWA
# Sequence of pentameric lumazine synthase from Schizosaccharomyces pombe (Q9UUB1 whole entry): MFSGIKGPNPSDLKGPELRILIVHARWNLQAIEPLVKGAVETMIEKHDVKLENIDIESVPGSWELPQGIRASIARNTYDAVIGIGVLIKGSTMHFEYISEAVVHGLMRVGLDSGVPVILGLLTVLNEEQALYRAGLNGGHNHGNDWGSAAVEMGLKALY
Compound,inhibitory activity against lumazine synthase (in words) [1],inhibitory activity against riboflavin synthase (in words) [2],"Ks (substrate dissociation constant for E + S ⇌ ES) [2, 7] [µM]",Kis (inhibitor dissociation constant for ES + I ⇌ ESI) ([2]; RS) [µM],Kcat (rate constant for ES ⇌ E + P) [1] [m^−1],Mechanism [1],Kis (inhibitor dissociation constant for ES + I ⇌ ESI) [1],other results
"O=C1Nc2ccc(S(=O)(=O)NCCO)c3cccc1c23 [Compound 31, N-(2-Hydroxyethyl)-2-oxo-1,2-dihydrobenzo[cd]indole-6-sulfonamide]",totally inactive,,,,,,,
"CCOC(=O)C(=O)Nc1c(Cl)[nH]c(=O)[nH]c1=O [Compound 77, Ethyl 2-(6-Chloro-2,4,dioxo-1,2,3,4-tetrahydropyrimidin-5-ylamino)-2-oxoethanoate]",,"weak, uncompetitive inhibitors",7.8 ± 0.3,897 ± 104,0.61 ± 0.02,Mixed,> 1000 µM,Mechanism ([2]; RS): Uncompetitive
"O=C1Nc2ccc(S(=O)(=O)NCCCCCO)c3cccc1c23 [Compound 33, N-(5-Hydroxypentyl)-2-oxo-1,2-dihydrobenzo[cd]indole-6-sulfonamide]",totally inactive,,,,,,,
"O=C1Nc2ccc(S(=O)(=O)NCCOP(=O)(O)O)c3cccc1c23 [Compound 26, 2-(2-Oxo-1,2-dihydrobenzo[cd]indole-6-sulfonamido)ethyl Dihydrogen Phosphate]",,,5.7 ± 0.04,> 1000,0.41 ± 0.01,Partial,125 ± 57 µM,
"CCC(O)CNS(=O)(=O)c1ccc2c3c(cccc13)C(=O)N2 (stereo not drawn) [Compound 32, N-(2-Hydroxybutyl)-2-oxo-1,2-dihydrobenzo[cd]indole-6-sulfonamide]",totally inactive,,,,,,,
"O=C1Nc2ccc(S(=O)(=O)NCCCCCOP(=O)(O)O)c3cccc1c23 [Compound 39, 5-(2-oxo-1,2-dihydrobenzo[cd]indole-6-sulfonamido)pentyl Dihydrogen Phosphate]",,"weak, uncompetitive inhibitors",9.8 ± 0.6,971 ± 179,0.45 ± 0.01,Uncompetitive,563 ± 56 µM,Mechanism ([2]; RS): Uncompetitive
"1,1-Difluoro-4-(2-oxo-1,2-dihydrobenzo[cd]indole-6-sulfonamido)butylphosphonic Acid [Compound 71]",inactive,inactive,,,,,,
"O=C(O)CNS(=O)(=O)c1ccc2c3c(cccc13)C(=O)N2 [Compound 9, 2-(2-oxo-1,2-dihydrobenzo[cd]indole-6-sulfonamido)acetic acid]",demonstrated inhibition,,,,,,58 µM,
"1,1-Difluoro-4-(2-oxo-1,2-dihydrobenzo[cd]indole-6-sulfonamido)hexylphosphonic Acid [Compound 73]",inactive,inactive,,,,,,
"O=C1Nc2ccc(S(=O)(=O)NCCCCOP(=O)(O)O)c3cccc1c23 [Compound 38, 4-(2-Oxo-1,2-dihydrobenzo[cd]indole-6-sulfonamido)butyl Dihydrogen Phosphate]",,,6.5 ± 0.3,> 1000,0.44 ± 0.01,Mixed,572 ± 210 µM,"Kd [3]: 130 µM; binding enthalpy ΔH ([3]; ITC): -7.6 ± 1.3 kcal/mol; entropy ΔS of binding ([3]; ITC, 30 °C): −7.2 cal·mol^−1·deg^−1; stoichiometry (n) of the binding reaction ([3]; ITC, 30 °C, inhibitor molecules per active site): 1; binding detected by titration calorimetry (in words) [4]: do not indicate a binding reaction; also recorded: did not detect binding; binding detected by titration calorimetry (in words) [5]: do not indicate a binding reaction; also recorded: did not detect binding"
"O=c1[nH]c(Cl)c(CCCCOP(=O)(O)O)c(=O)[nH]1 [Compound 11, 4-(6-chloro-2,4-dioxo-1,2,3,4-tetrahydropyrimidin-5-yl)butyl dihydrogen phosphate]",,,,,,,,Ki ([6]; M. tuberculosis lumazine synthase): 880 nM; inhibition constant (in words) ([6]; lumazine synthase): nanomolar range
"O=C1Nc2ccc(S(=O)(=O)NCCCCP(=O)(O)O)c3cccc1c23 [Compound 54, 4-(2-Oxo-1,2-dihydrobenzo[cd]indole-6-sulfonamido)butylphosphonic Acid]",absolutely no inhibitory activity,,,,,,,
"O=C1Nc2ccc(S(=O)(=O)NCCCOP(=O)(O)O)c3cccc1c23 [Compound 27, 3-(2-Oxo-1,2-dihydrobenzo[cd]indole-6-sulfonamido)propyl Dihydrogen Phosphate]",,,5.6 ± 0.04,> 1000,0.45 ± 0.01,Mixed,434 ± 115 µM,"Kd [3]: 112 µM; binding enthalpy ΔH ([3]; ITC): -5.2 ± 0.7 kcal/mol; entropy ΔS of binding ([3]; ITC, 30 °C): 0.98 cal·mol^−1·deg^−1"
"1,1-Difluoro-4-(2-oxo-1,2-dihydrobenzo[cd]indole-6-sulfonamido)pentylphosphonic Acid [Compound 72]",poor inhibitory activity,inactive,4.1 ± 0.3,> 1000,0.57 ± 0.01,Mixed,518 µM and 518 ± 94 µM,
"5-(2-Oxo-1,2-dihydrobenzo[cd]indole-6-sulfonamido)hexyl Dihydrogen Phosphate [Compound 40]",,"weak, uncompetitive inhibitors",9.8 ± 0.6,898 ± 187,0.45 ± 0.01,Uncompetitive,723 ± 91 µM,"Kcat (rate constant for ES ⇌ E + P) [2, 7]: 0.56 ± 0.01 m^−1; Mechanism ([2]; RS): Uncompetitive"
"4-(2-Oxo-1,2-dihydrobenzo[cd]indole-6-sulfonamido)pentylphosphonic Acid [Compound 55]",absolutely no inhibitory activity,,,,,,,
